In US8846699B2, “Quinazoline derivatives as a multiplex inhibitor and method for the preparation thereof” (Hanmi Pharm. Co., Ltd., priority 2005, dated 2014):

Columns and labels:
VEGFR2 (KDR) = VEGFR2 (KDR) (Homo sapiens (Human), UniProt P35968); test: VEGFR2 (KDR) enzyme assay, fluorescence polarization; format: biochemical; conditions: 5 μM ATP, poly(Glu, Tyr) substrate
Outline: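 Autophosphorylation read by fluorescence polarization: VEGFR2 (Proquinase) at 200 ng/10 μl with 5 μM ATP and 10 ng/ml poly(Glu,Tyr) 4:1, in 20 mM HEPES pH 7.4, 5 mM MgCl2, 2 mM MnCl2, 50 μM Na3VO4. Reaction 1 h at room temperature, EDTA stop, then anti-phosphotyrosine antibody/tracer for 30 min in the dark.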

[1] = tested on: skin cancer cell line, A431; test: Inhibitory effect on growth of cancer cell line A431, SRB; format: cell-based; conditions: Homo sapiens, A-431, 72 h, overexpressed EGFR1 (HER-1)
Outline: (§1)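 Cells were cultured in DMEM with 10% FBS. Compounds were applied at 10 μM with 10-fold serial dilution to 10^−4, DMSO <1%, for 72 h at 37 °C. Cells were then TCA-fixed and stained with 0.4% SRB, and absorbance was read at 570 nm after solubilisation in 10 mM Tris base.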

[2] = tested on: colon and rectal cancer cell line, SW-620; test: Inhibitory effect on growth of cancer cell line SW-620, SRB; format: cell-based; conditions: Homo sapiens, 72 h, not having overexpressed EGFR and EGFR2
Outline: as §1

[3] = tested on: Human Umbilical Vein Endothelial Cell (HUVEC); test: Inhibitory effect on growth of human umbilical vein endothelial cell (HUVEC), MTS; format: cell-based; conditions: Homo sapiens, 96 h, 10 ng/ml VEGF, absorbance 490 nm
EGFR1 (HER-1) = EGFR1 (HER-1) (Homo sapiens (Human), UniProt P00533); test: EGFR1 (HER-1) enzyme assay, fluorescence polarization; format: biochemical; conditions: 100 μM ATP, poly(Glu, Tyr) substrate
Sequence of EGFR1 (HER-1) (P00533 25-1210): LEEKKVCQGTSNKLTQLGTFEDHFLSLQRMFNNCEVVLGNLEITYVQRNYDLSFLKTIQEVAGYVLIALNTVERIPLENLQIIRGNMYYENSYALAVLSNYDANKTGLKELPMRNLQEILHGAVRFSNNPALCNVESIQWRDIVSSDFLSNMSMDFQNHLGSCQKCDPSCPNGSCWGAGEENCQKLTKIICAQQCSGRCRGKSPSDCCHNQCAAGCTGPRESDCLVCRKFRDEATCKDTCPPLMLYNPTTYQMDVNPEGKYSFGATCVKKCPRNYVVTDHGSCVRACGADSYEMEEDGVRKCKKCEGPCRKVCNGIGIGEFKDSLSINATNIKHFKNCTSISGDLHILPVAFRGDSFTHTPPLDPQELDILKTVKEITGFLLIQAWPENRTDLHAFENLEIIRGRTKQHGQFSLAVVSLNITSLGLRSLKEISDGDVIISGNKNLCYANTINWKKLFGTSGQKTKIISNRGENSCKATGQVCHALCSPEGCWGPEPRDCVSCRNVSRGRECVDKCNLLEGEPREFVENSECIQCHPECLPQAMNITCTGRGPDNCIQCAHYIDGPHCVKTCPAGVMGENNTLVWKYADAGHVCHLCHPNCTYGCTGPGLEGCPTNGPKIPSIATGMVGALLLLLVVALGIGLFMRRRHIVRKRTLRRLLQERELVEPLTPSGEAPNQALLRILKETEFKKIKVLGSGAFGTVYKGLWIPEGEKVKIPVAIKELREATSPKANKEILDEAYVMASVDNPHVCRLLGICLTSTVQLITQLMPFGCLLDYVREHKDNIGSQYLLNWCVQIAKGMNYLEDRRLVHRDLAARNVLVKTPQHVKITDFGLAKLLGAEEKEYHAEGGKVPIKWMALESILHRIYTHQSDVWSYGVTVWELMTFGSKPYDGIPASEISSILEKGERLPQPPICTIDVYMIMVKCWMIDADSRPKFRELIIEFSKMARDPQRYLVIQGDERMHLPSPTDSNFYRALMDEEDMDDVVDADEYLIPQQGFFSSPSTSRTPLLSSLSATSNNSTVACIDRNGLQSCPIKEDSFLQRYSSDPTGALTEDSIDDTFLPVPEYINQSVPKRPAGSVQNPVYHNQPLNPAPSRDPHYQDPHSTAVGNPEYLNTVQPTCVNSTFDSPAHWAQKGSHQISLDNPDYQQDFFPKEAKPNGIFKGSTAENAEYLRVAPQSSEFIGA

[4] = tested on: breast cancer cell line, SK-Br3; test: Inhibitory effect on growth of cancer cell line SK-Br3, SRB; format: cell-based; conditions: Homo sapiens, SK-BR-3, 72 h, overexpressed EGFR2 (HER-2)
Outline: as §1

Sequence of VEGFR2 (KDR) (P35968 20-1356): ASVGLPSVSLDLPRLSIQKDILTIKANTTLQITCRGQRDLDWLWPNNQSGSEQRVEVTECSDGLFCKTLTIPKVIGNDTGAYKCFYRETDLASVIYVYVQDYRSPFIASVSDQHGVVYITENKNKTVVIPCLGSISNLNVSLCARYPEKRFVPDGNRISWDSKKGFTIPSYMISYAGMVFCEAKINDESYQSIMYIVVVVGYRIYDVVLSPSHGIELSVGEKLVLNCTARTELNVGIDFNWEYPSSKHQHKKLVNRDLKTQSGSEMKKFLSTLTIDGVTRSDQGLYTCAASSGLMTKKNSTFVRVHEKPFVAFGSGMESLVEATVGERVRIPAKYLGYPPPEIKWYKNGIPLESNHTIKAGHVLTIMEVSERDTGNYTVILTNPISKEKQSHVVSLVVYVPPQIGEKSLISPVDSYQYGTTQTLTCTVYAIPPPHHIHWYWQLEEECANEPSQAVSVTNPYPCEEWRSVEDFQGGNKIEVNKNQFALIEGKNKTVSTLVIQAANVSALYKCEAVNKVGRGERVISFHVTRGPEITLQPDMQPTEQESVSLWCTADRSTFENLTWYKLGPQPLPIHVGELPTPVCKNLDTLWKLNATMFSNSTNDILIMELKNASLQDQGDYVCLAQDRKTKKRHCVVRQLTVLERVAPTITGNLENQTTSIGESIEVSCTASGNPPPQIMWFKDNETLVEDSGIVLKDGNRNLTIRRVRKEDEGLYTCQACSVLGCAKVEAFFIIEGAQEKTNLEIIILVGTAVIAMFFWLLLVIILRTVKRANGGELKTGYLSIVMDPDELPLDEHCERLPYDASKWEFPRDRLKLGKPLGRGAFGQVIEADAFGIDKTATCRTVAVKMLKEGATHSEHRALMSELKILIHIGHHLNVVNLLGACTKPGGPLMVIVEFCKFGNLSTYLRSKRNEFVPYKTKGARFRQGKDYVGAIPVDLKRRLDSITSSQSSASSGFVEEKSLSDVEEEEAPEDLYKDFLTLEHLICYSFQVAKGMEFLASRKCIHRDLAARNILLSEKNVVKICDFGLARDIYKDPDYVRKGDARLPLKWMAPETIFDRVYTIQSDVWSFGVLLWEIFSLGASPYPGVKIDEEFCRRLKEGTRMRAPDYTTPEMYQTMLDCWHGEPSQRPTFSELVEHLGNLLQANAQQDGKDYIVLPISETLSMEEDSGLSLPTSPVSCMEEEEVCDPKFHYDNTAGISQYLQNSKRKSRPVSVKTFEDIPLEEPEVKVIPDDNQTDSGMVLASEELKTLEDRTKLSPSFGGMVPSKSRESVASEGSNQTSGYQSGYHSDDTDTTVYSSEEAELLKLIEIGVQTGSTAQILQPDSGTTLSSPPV

| SMILES | IC50 (VEGFR2 (KDR)) | IC50 [1] | IC50 [2] | IC50 [3] | IC50 (EGFR1 (HER-1)) | IC50 [4] |
| --- | --- | --- | --- | --- | --- | --- |
| C=CC(=O)Nc1cc2c(Nc3ccc(Br)cc3F)ncnc2cc1OCC(C)NC(=O)NCCC (stereo not drawn) [Example 85, N-{4-(4-bromo-2-fluoro-phenylamino)-7-[2-(3-propyl-ureido)-propoxy]-quinazolin-6-yl}-acrylamide] | 784 nM | 38 nM | 2760 nM | 964 nM | 29 nM | 178 nM |
| C=CC(=O)Nc1cc2c(Nc3ccc(Br)cc3F)ncnc2cc1OCC(CC)NC(C)=O (stereo not drawn) [Example 86, N-[7-(2-acetylamino-butoxy)-4-(4-bromo-2-fluoro-phenylamino)-quinazolin-6-yl]-acrylamide] | 98 nM | 71 nM | 722 nM | 118 nM | 69 nM | 208 nM |
| C=CC(=O)Nc1cc2c(Nc3ccc(Br)cc3F)ncnc2cc1OCCCNC(=O)CC [Example 87, N-[4-(4-bromo-2-fluoro-phenylamino)-7-(3-propionylamino-propoxy)-quinazolin-6-yl]-acrylamide] | 698 nM | 44 nM | 10000 nM | 692 nM | 40 nM | 288 nM |
| C=CC(=O)Nc1cc2c(Nc3ccc(Br)cc3F)ncnc2cc1OCCNc1nccs1 [Example 90, N-{4-(4-bromo-2-fluoro-phenylamino)-7-[2-(thiazol-2-ylamino)-ethoxy]-quinazolin-6-yl}-acrylamide] | 477 nM | 310 nM | 10000 nM | 589 nM | 295 nM | 1280 nM |
| C=CC(=O)Nc1cc2c(Nc3ccc(Br)cc3F)ncnc2cc1OCC1CNC(=O)O1 (stereo not drawn) [Example 91, N-[4-(4-bromo-2-fluoro-phenylamino)-7-(2-oxo-oxazolidin-5-ylmethoxy)-quinazolin-6-yl]-acrylamide] | 587 nM | 15 nM | 2790 nM | 696 nM | 17 nM | 335 nM |
| C=CC(=O)Nc1cc2c(Nc3ccc(Br)cc3F)ncnc2cc1OCCNC(=O)c1cccs1 [Example 92, thiophene-2-carboxylic acid {2-[6-acryloylamino-4-(4-bromo-2-fluoro-phenylamino)-quinazolin-7-yloxy]-ethyl}-amide] | 129 nM | 57 nM | 729 nM | 258 nM | 47 nM | 437 nM |
| C=CC(=O)Nc1cc2c(Nc3ccc(Br)cc3F)ncnc2cc1OCCNC(=O)N1CCOCC1 [Example 93, morpholine-4-carboxylic acid {2-[6-acryloylamino-4-(4-bromo-2-fluoro-phenylamino)-quinazolin-7-yloxy]-ethyl}-amide] | 197 nM | 46 nM | 10000 nM | 269 nM | 36 nM | 53 nM |
| C=CC(=O)Nc1cc2c(Nc3ccc(Br)cc3F)ncnc2cc1OCCNC(=O)N1CCNCC1 [Example 94, piperazine-1-carboxylic acid {2-[6-acryloylamino-4-(4-bromo-2-fluoro-phenylamino)-quinazolin-7-yloxy]-ethyl}-amide] | 698 nM | 739 nM | 2320 nM | 694 nM | 698 nM | 2560 nM |
| C=CC(=O)Nc1cc2c(Nc3ccc(Br)cc3F)ncnc2cc1OCCNC(=O)N1CCN(C(C)=O)CC1 [Example 95, 4-acetyl-piperazine-1-carboxylic acid {2-[6-acryloylamino-4-(4-bromo-2-fluoro-phenylamino)-quinazolin-7-yloxy]-ethyl}-amide] | 782 nM | 86 nM | 10000 nM | 786 nM | 76 nM | 236 nM |
| C=CC(=O)Nc1cc2c(Nc3ccc(Br)cc3F)ncnc2cc1OCCNC(=O)N1CCN(C)CC1 [Example 96, 4-methyl-piperazine-1-carboxylic acid {2-[6-acryloylamino-4-(4-bromo-2-fluoro-phenylamino)-quinazolin-7-yloxy]-ethyl}-amide] | 358 nM | 21 nM | 10000 nM | 352 nM | 13 nM | 239 nM |
| C=CC(=O)Nc1cc2c(Nc3ccc(Br)cc3F)ncnc2cc1OCCNC(=O)C1CCCN1 (stereo not drawn) [Example 97, pyrrolidine-2-carboxylic acid {2-[6-acryloylamino-4-(4-bromo-2-fluoro-phenylamino)-quinazolin-7-yloxy]-ethyl}-amide] | 658 nM | 2380 nM | 2740 nM | 867 nM | 1950 nM | 10000 nM |
| C=CC(=O)Nc1cc2c(Nc3ccc(Br)cc3F)ncnc2cc1OCCNC(=O)CN1CCCCC1 [Example 101, N-{4-(4-bromo-2-fluoro-phenylamino)-7-[2-(2-piperidin-1-yl-acetylamino)-ethoxy]-quinazolin-6-yl}-acrylamide] | 857 nM | 8 nM | 2920 nM | 964 nM | 7 nM | 76 nM |
| C=CC(=O)Nc1cc2c(Nc3ccc(Br)cc3F)ncnc2cc1OCCNC(=O)CN1CCN(C)CC1 [Example 102, N-(4-(4-bromo-2-fluoro-phenylamino)-7-{2-[2-(4-methyl-piperazin-1-yl)-acetylamino]-ethoxy}-quinazolin-6-yl)-acrylamide] | 654 nM | 15 nM | 727 nM | 682 nM | 12 nM | 112 nM |
| C=CC(=O)Nc1cc2c(Nc3ccc(Br)cc3F)ncnc2cc1OCCNC(=O)CN1CCOCC1 [Example 103, N-{4-(4-bromo-2-fluoro-phenylamino)-7-[2-(2-morpholin-4-yl-acetylamino)-ethoxy]-quinazolin-6-yl}-acrylamide] | 782 nM | 35 nM | 3670 nM | 932 nM | 32 nM | 399 nM |
| C=CC(=O)Nc1cc2c(Nc3ccc(Br)cc3F)ncnc2cc1OCCNC(=O)CCN1CCCCC1 [Example 104, N-{4-(4-bromo-2-fluoro-phenylamino)-7-[2-(3-piperidin-1-yl-propionylamino)-ethoxy]-quinazolin-6-yl}-acrylamide] | 945 nM | 16 nM | 5260 nM | 855 nM | 14 nM | 93 nM |
| C=CC(=O)Nc1cc2c(Nc3ccc(Br)cc3F)ncnc2cc1OCCNC(=O)C1CCCN1C(C)=O (stereo not drawn) [Example 105, 1-acetyl-pyrrolidine-2-carboxylic acid {2-[6-acryloylamino-4-(4-bromo-2-fluoro-phenylamino)-quinazolin-7-yloxy]-ethyl}-amide] | 654 nM | 30 nM | 6700 nM | 654 nM | 25 nM | 100 nM |
| C=CC(=O)Nc1cc2c(Nc3ccc(Br)cc3F)ncnc2cc1OCCNC(=O)C1CCCN1C(=O)CC (stereo not drawn) [Example 106, 1-propionyl-pyrrolidine-2-carboxylic acid {2-[6-acryloylamino-4-(4-bromo-2-fluoro-phenylamino)-quinazolin-7-yloxy]-ethyl}-amide] | 853 nM | 264 nM | 2800 nM | 951 nM | 196 nM | 311 nM |
